Reference: patent US6008372A, “Substituted dinaphthylmethyl and diheteroarylmethylacetyl histidine inhibitors of protein farnesyltransferase” (Warner-Lambert Company, priority 1998, dated 1999)
Like-named read-outs stand apart in the source and are kept apart here.

Biological target: T1, rat brain farnesyl protein transferase (Rattus norvegicus, UniProt Q02293+Q04631)
T1 construct: 40-fold purified rat brain farnesyl protein transferase; from tissue; host or cells: rat brain
Test: Protein:farnesyltransferase (PFT/FPT) inhibitory activity assay
Format: biochemical

[1] = Hepes (without 5 mM phosphate), read-out: Farnesyl Protein Transferase Inhibition, Hepes, IC50
[2] = Hepes/5 mM PO4^-3, pH 7.4, read-out: Farnesyl Protein Transferase Inhibition, Hepes/5 mM PO4^-3, IC50

Compound | IC50 [1] | IC50 [2]
CNC(=O)[C@H](Cc1cncn1C)NC(=O)C(Cc1cccc2ccccc12)Cc1cccc2ccccc12 [Example 64, (S)-N-[1-Methylcarbamoyl-2-(3-methyl-3H-imidazol-4-yl)-ethyl]-3-naphthalen-1-yl-2-naphthalen-1-ylmethyl-propionamide] | 610 nM | 460 nM
COCn1cncc1C[C@H](NC(=O)C(Cc1cccc2ccccc12)Cc1cccc2ccccc12)C(=O)OC [Example 60, (S)-3-(3-Methoxymethyl-3H-imidazol-4-yl)-2-(3-naphthalen-1-yl-2-naphthalen-1-ylmethyl-propionylamino)-propionic acid, methyl ester] | 930 nM | 1000 nM
CCCCc1nc(COC(=O)[C@H](Cc2c[nH]cn2)NC(=O)C(Cc2cccc3ccccc23)Cc2cccc3ccccc23)c[nH]1 [Example 13, (S)-3-(1H-Imidazol-4-yl)-2-(3-naphthalen-1-yl-2-naphthalen-1-ylmethyl-propionylamino)-propionic acid, 2-butyl-1H-imidazol-4-ylmethyl ester] | 2100 nM | 1700 nM
OC[C@H](Cc1c[nH]cn1)NCC(Cc1cccc2ccccc12)Cc1cccc2ccccc12 [Example 62, (S)-3-(1H-Imidazol-4-yl)-2-(3-naphthalen-1-yl-2-naphthalen-1-ylmethyl-propylamino)-propan-1-ol] | 550 nM | 500 nM
COC(=O)[C@H](Cc1c[nH]cn1)NCC(Cc1cccc2ccccc12)Cc1cccc2ccccc12 [Example 56, (S)-3-(1H-Imidazol-4-yl)-2-(3-naphthalen-1-yl-2-naphthalen-1-ylmethyl-propylamino)-propionic acid methyl ester] | 370 nM | 360 nM
CCCNC(=O)[C@H](Cc1c[nH]cn1)NC(=O)C(Cc1cccc2ccccc12)Cc1cccc2ccccc12 [Example 46] | 4900 nM | 5600 nM
CCC(C)OC(=O)[C@H](Cc1c[nH]cn1)NC(=O)C(Cc1cccc2ccccc12)Cc1cccc2ccccc12 (mixture of isomers) [Example 14, (S)-3-(1H-Imidazol-4-yl)-2-(3-naphthalen-1-yl-2-naphthalen-1-ylmethyl-propionylamino)-propionic acid, (±)-sec-butyl ester] | 820 nM | 540 nM
NS(=O)(=O)c1ccc(CCNC(=O)[C@H](Cc2c[nH]cn2)NC(=O)C(Cc2cccc3ccccc23)Cc2cccc3ccccc23)cc1 [Example 35] | 15000 nM | 14000 nM
CC(C#N)OC(=O)[C@H](Cc1c[nH]cn1)NC(=O)C(Cc1cccc2ccccc12)Cc1cccc2ccccc12 (mixture of isomers) [Example 61, (S)-3-(1H-Imidazol-4-yl)-2-(3-naphthalen-1-yl-2-naphthalen-1-ylmethyl-propionylamino)-propionic acid, (±)-1-cyano-ethyl ester] | 640 nM | 610 nM
N#CCCOC(=O)[C@H](Cc1c[nH]cn1)NC(=O)C(CC1CCCC2CCCCC21)CC1CCCC2CCCCC21 (stereo partly drawn) [Example 45, (S)-2-[3-(Decahydro-naphthalen-1-yl)-2-(decahydro-naphthalen-1-ylmethyl)-propionylamino]-3-(1H-imidazol-4-yl)-propionic acid, 2-cyano-ethyl ester] | 490 nM | 320 nM
O=C(N[C@H](Cc1c[nH]cn1)C(=O)O)C(Cc1cccc2ccccc12)Cc1cccc2ccccc12 [Example 4, (R)-3-(1H-Imidazol-4-yl)-2-(3-naphthalen-1-yl-2-naphthalen-1-ylmethyl-propionylamino)-propionic acid] | 6100 nM | 19500 nM
O=C(N[C@@H](Cc1c[nH]cn1)C(=O)OCCOCc1ccccc1)C(Cc1cccc2ccccc12)Cc1cccc2ccccc12 [Example 18, (S)-3-(1H-Imidazol-4-yl)-2-(3-naphthalen-1-yl-2-naphthalen-1-ylmethyl-propionylamino)-propionic acid, 2-benzyloxyethyl ester] | 570 nM | 540 nM
